# Biological target: T1, human CRHR2-alpha (Homo sapiens, UniProt Q13324)
# T1 sequence (Q13324 1-411): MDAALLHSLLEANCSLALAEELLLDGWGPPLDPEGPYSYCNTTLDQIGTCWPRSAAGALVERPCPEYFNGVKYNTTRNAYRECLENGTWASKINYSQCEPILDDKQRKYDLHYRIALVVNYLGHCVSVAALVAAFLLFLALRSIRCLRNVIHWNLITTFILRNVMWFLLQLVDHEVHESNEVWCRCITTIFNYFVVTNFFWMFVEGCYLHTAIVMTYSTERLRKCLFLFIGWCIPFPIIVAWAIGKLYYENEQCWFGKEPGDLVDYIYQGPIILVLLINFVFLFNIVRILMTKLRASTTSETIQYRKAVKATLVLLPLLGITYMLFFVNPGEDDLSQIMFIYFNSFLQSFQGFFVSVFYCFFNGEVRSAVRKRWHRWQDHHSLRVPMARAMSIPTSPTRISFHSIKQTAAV
# Assay: cAMP functional assay for human CRHR2 (LANCE Ultra cAMP, TR-FRET)
# Format: cell-based
# Details: CHO-K1 cells expressing human CRHR2-alpha, agonist human urocortin2 at EC80, cAMP; read-out: IC50 against CRHR2
# Protocol: cAMP functional assay for human CRHR1 and CRHR2
# The ability of the compounds of this invention to inhibit either CRHR2 or CRHR1 is assessed by 3′,5′-cyclic adenosine monophosphate (cAMP) production in cells using the LANCE Ultra cAMP assay kit (ParkinElmer), which are designed based on the homogeneous time-resolved fluorescence resonance energy transfer (TR-FRET) immunoassay.
# CHO-K1 (Chinese hamster ovary) cells stably expressing either human CRHR2-alpha (DiscoveRX, Cat. 95-0048C2) or human CRHR1-beta (DiscoveRX, Cat. 95-0047C2) are grown in HAM's F12 media supplemented with 10% fetal bovine serum (FBS), 100 units/mL penicillin, 100 microg/mL hygromycin and 0.5 microg/mL geneticin at 37° C. in 5% CO2 humidified incubator to 80% confluence. After 7 hours starvation treatment in culture media containing 0.1% FBS, the cells are washed with Hanks balanced salt solution (HBSS) and cryopreserved.
# For cAMP assay, frozen cells are thawed and washed with HBSS, followed by resuspended in assay buffer (HBSS containing 0.1% bovine serum albumin, 0.5 mM isobutylmethylxanthine and 5 mM Hepes, pH 7.4) at the appropriate concentration for the assay. The cell suspensions are plated on 384-well microplates (Greiner Bio-One) at a density of 4,000 cells per well. After preincubating the cells with various concentrations of the compounds for 30 min at 25° C., an assay buffer containing EC80 concentration of each agonist is added and the cells are incubated for 30 min at 25° C. Human urocortin2 (Peptide Institute) and CRF (Peptide Institute) are used as agonists for CRHR2 and CRHR1, respectively. For the termination of assay, europium-labeled cAMP tracer and ULight (registered trademark) dye labeled cAMP antibodies, both prepared with Lance-Ultra cAMP detection reagent (Perkin Elmer) are added in the plate and incubate for 60 min at 25° C. After incubation, TR-FRET signal is detected by EnVision plate reader (PerkinElmer). The IC50 values for compounds are calculated from dose-response curves by fitting the percent inhibition using XLfit (ID Business Solutions).
row,SMILES,IC50 [nM]
1,"COc1ccc(-n2c(=O)n(C[C@H]3CC[C@H](NC(=O)c4cc(Cl)cnc4C)CC3)c3ccccc32)c(C)n1 [Example 149, 5-chloro-N-((1r,4r)-4-((3-(6-methoxy-2-methylpyridin-3-yl)-2-oxo-2,3-dihydro-1H-benzo[d]imidazol-1-yl)methyl)cyclohexyl)-2-methylnicotinamide]",< 300
2,"Cc1ccc(-n2c(=O)n(C[C@H]3CC[C@H](NC(=O)c4cc(Cl)ccc4C)CC3)c3ccccc32)cn1 [Example 267, 5-chloro-2-methyl-N-((1r,4r)-4-((3-(6-methyl-pyridin-3-yl)-2-oxo-2,3-dihydro-1H-benzo[d]imidazol-1-yl)methyl)cyclo-hexyl)benzamide]",< 300
3,"CCn1nc2ccccc2c1C(=O)N[C@H]1CC[C@H](Cn2c(=O)n(-c3ccc(C(C)=O)cc3)c3ccccc32)CC1 [Example 41, N-((1r,4r)-4-((3-(4-acetylphenyl)-2-oxo-2,3-dihydro-1H-benzo[d]imidazol-1-yl)methyl)cyclohexyl)-2-ethyl-2H-indazole-3-carboxamide]",< 300
4,"CNC(=O)c1cc(C)c(-n2c(=O)n(C[C@H]3CC[C@H](NC(=O)c4cc(Cl)cnc4C(F)F)CC3)c3ccccc32)cn1 [Example 363, 5-(3-(((1r,4r)-4-(5-chloro-2-(difluoromethyl)nicotinamido)cyclohexyl)methyl)-2-oxo-2,3-dihydro-1H-benzo[d]imidazol-1-yl)-N,4-dimethylpicolinamide]",< 300
5,"Cc1ncc(Cl)cc1C(=O)N[C@H]1CC[C@H](Cn2c(=O)n(-c3ccc4cnccc4c3)c3ccccc32)CC1 [Example 371, 5-chloro-N-((1r,4r)-4-((3-(isoquinolin-6-yl)-2-oxo-2,3-dihydro-1H-benzo[d]imidazol-1-yl)methyl)cyclo-hexyl)-2-methylnicotinamide]",< 300
6,"Cc1ncc(Cl)cc1C(=O)N[C@H]1CC[C@H](Cn2c(=O)n(C3COc4ccccc4C3)c3ccccc32)CC1 (stereo partly drawn) [Example 167, 5-chloro-N-((1r,4r)-4-((3-(chroman-3-yl)-2-oxo-2,3-dihydro-1H-benzo[d]imidazol-1-yl)methyl)cyclo-hexyl)-2-methylnicotinamide]",< 300
7,"Cc1ncc(Cl)cc1C(=O)N[C@H]1CC[C@H](Cn2c(=O)n(-c3cnc4ccccc4c3)c3cccnc32)CC1 [Example 359, 5-chloro-2-methyl-N-((1r,4r)-4-((2-oxo-1-(quinolin-3-yl)-1H-imidazo[4,5-b]pyridin-3(2H)-yl)methyl)cyclohexyl) nicotinamide]",< 300
8,"Cc1ncc(Cl)cc1C(=O)N[C@H]1CC[C@H](Cn2c(=O)n(-c3ccc(N[C@@H]4CCOC4)nc3)c3ccccc32)CC1 [Example 107, 5-chloro-2-methyl-N-((1R,4R)-4-((2-oxo-3-(6-(((R)-tetrahydro-furan-3-yl)amino)pyridin-3-yl)-2,3-dihydro-1H-benzo[d]imidazol-1-yl)methyl)cyclohexyl) nicotinamide]",< 300
9,"Cc1ncc(Cl)cc1C(=O)N[C@H]1CC[C@H](Cn2c(=O)n(-c3ccc(N4CCC(O)CC4)nc3)c3ccccc32)CC1 [Example 96, 5-chloro-N-((1r,4r)-4-((3-(6-(4-hydroxypiperidin-1-yl)pyridin-3-yl)-2-oxo-2,3-dihydro-1H-benzo[d]imidazol-1-yl)methyl)cyclohexyl)-2-methylnicotinamide]",< 300
10,"O=C(N[C@H]1CC[C@H](Cn2c(=O)n(-c3ccc4ncncc4c3)c3ccccc32)CC1)c1cc(Cl)cnc1C(F)F [Example 394, 5-chloro-2-(difluoromethyl)-N-((1r,4r)-4-((2-oxo-3-(quinazolin-6-yl)-2,3-dihydro-1H-benzo[d]imidazol-1-yl)methyl)cyclohexyl)nicotinamide]",< 300
11,"CNC(=O)c1ccc(-n2c(=O)n(C[C@H]3CC[C@H](NC(=O)c4cc(Cl)cnc4N(C)C)CC3)c3ccccc32)cn1 [Example 328, 5-(3-(((1r,4r)-4-(5-chloro-2-(dimethylamino)nicotinamido)cyclohexyl)methyl)-2-oxo-2,3-dihydro-1H-benzo[d]imidazol-1-yl)-N-methyl-picolinamide]",< 300
12,"Cc1ncc(Cl)cc1C(=O)N[C@H]1CC[C@H](Cn2c(=O)n(-c3ccc(-c4ccccc4CO)nc3)c3ccccc32)CC1 [Example 90, 5-chloro-N-((1r,4r)-4-((3-(6-(2-(hydroxymethyl)phenyl)pyridin-3-yl)-2-oxo-2,3-dihydro-1H-benzo[d]imidazol-1-yl)methyl)cyclohexyl)-2-methylnicotinamide]",< 300

# The remaining lines, values ahead:
row,IC50 [nM],SMILES
1,< 300,"CCC(=O)Nc1ccc(-n2c(=O)n(C[C@H]3CC[C@H](NC(=O)c4cc(Cl)cnc4C(F)F)CC3)c3ccccc32)cn1 [Example 510, 5-chloro-2-(difluoromethyl)-N-((1r,4r)-4-((2-oxo-3-(6-propionamidopyridin-3-yl)-2,3-dihydro-1H-benzo[d]imidazol-1-yl)methyl)cyclo-hexyl)nicotinamide]"
2,< 300,"Cc1ncc(Cl)cc1C(=O)N[C@H]1CC[C@H](Cn2c(=O)n(-c3ccc(-n4nccn4)nc3)c3ccccc32)CC1 [Example 512, N-((1r,4r)-4-((3-(6-(2H-1,2,3-triazol-2-yl)pyridin-3-yl)-2-oxo-2,3-dihydro-1H-benzo[d]imidazol-1-yl)methyl)cyclohexyl)-5-chloro-2-methylnicotinamide]"
3,< 300,"Cc1ncc(Cl)cc1C(=O)N[C@H]1CC[C@H](Cn2c(=O)n(-c3ccc(NCc4cnn(C)c4)nc3)c3ccccc32)CC1 [Example 441, 5-chloro-2-methyl-N-((1r,4r)-4-((3-(6-(((1-methyl-1H-pyrazol-4-yl)methyl)amino)pyridin-3-yl)-2-oxo-2,3-dihydro-1H-benzo[d]imidazol-1-yl)methyl)cyclohexyl)nicotinamide]"
4,< 300,"CC(=O)c1ccc(-n2c(=O)n(C[C@H]3CC[C@H](NC(=O)c4cc(Cl)cnc4C(F)F)CC3)c3cccnc32)cc1 [Example 400, N-((1r,4r)-4-((3-(4-acetylphenyl)-2-oxo-2,3-dihydro-1H-imidazo [4,5-b]pyridin-1-yl)methyl)cyclo-hexyl)-5-chloro-2-(difluoro-methyl)nicotinamide]"
5,< 300,"COc1ccc(-n2c(=O)n(C[C@H]3CC[C@H](NC(=O)c4cc(Cl)cnc4C(F)F)CC3)c3ncccc32)cc1F [Example 722, 5-chloro-2-(difluoromethyl)-N-((1r,4r)-4-((1-(3-fluoro-4-methoxyphenyl)-2-oxo-1H-imidazo[4,5-b]pyridin-3(2H)-yl)methyl)cyclohexyl) nicotinamide]"
6,< 300,"O=C(N[C@H]1CC[C@H](Cn2c(=O)n(-c3ccncc3Cl)c3ncccc32)CC1)c1cc(Cl)cnc1C(F)F [Example 496, 5-chloro-N-((1r,4r)-4-((3-(3-chloropyridin-4-yl)-2-oxo-2,3-dihydro-1H-imidazo[4,5-b]pyridin-1-yl)methyl)cyclohexyl)-2-(difluoromethyl)nicotinamide]"
7,< 300,"Cc1cc2cc(-n3c(=O)n(C[C@H]4CC[C@H](NC(=O)c5cc(Cl)cnc5C(F)F)CC4)c4cccnc43)cnc2n1C [Example 708, 5-chloro-2-(difluoromethyl)-N-((1r,4r)-4-((3-(1,2-dimethyl-1H-pyrrolo[2,3-b]pyridin-5-yl)-2-oxo-2,3-dihydro-1H-imidazo[4,5-b]pyridin-1-yl)methyl)cyclohexyl)nicotinamide]"
8,< 300,"CNc1ccc(-n2c(=O)n(C[C@H]3CC[C@H](NC(=O)c4cc(Cl)cnc4C)CC3)c3ccccc32)nc1 [Example 574, 5-chloro-2-methyl-N-((1r,4r)-4-((3-(5-(methylamino)pyridin-2-yl)-2-oxo-2,3-dihydro-1H-benzo[d]imidazol-1-yl)methyl)cyclohexyl)nicotinamide]"
9,< 300,"O=C(N[C@H]1CC[C@H](Cn2c(=O)n(-c3ccccc3Cl)c3cccnc32)CC1)c1cc(Cl)cnc1C(F)F [Example 630, 5-chloro-N-((1r,4r)-4-((1-(2-chlorophenyl)-2-oxo-1H-imidazo[4,5-b]pyridin-3(2H)-yl)methyl)cyclohexyl)-2-(difluoromethyl)nicotinamide]"
